Assay results: patent publication US8569267B2, “Tetracyclic tetrahydrofuran derivatives containing cyclic amine side chain” (Janssen Pharmaceutica, NV, priority 2005, dated 2013)

What was measured:
[1] = target: T1, human cloned 5-HT2A receptor, expressed in L929 cells (Homo sapiens, UniProt P28223); test: In vitro binding affinity for 5-HT2A receptor ([125I]R91150 radioligand binding); conditions: human cloned 5-HT2A receptor in L929 cells, [125I]R91150; for IC50: read-out: 5-HT2A pIC50 (converted)
T1 construct: expressed in transfected cells; host or cells: L929 cells
T1 sequence (P28223 whole entry): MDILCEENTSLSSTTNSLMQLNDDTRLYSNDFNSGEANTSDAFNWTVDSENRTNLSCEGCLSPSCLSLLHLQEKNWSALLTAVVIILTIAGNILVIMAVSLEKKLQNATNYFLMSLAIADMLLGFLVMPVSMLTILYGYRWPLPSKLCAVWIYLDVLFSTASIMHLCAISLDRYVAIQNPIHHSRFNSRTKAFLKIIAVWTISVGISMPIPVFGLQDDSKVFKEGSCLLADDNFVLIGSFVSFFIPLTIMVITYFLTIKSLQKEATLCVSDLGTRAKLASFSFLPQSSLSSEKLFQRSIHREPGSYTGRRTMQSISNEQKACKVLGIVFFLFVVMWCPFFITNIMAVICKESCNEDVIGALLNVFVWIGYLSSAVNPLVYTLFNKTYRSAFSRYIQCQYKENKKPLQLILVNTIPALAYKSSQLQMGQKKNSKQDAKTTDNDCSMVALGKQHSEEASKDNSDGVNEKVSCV
Outline: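 Competition radioligand binding to human cloned 5-HT2A receptor expressed in L929 cells, using [125I]R91150 with test compound at various concentrations. At equilibrium, receptor-bound radioactivity was separated from free and counted. Affinity reflects inhibition of radioligand binding.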

[2] = target: T2, human cloned 5-HT2C receptor, expressed in CHO cells (Homo sapiens, UniProt P28335); test: In vitro binding affinity for 5-HT2C receptor ([3H]mesulergine radioligand binding); conditions: human cloned 5-HT2C receptor; for IC50: read-out: 5-HT2C pIC50 (converted)
T2 construct: expressed in transfected cells; host or cells: CHO cells
T2 sequence (P28335 33-458): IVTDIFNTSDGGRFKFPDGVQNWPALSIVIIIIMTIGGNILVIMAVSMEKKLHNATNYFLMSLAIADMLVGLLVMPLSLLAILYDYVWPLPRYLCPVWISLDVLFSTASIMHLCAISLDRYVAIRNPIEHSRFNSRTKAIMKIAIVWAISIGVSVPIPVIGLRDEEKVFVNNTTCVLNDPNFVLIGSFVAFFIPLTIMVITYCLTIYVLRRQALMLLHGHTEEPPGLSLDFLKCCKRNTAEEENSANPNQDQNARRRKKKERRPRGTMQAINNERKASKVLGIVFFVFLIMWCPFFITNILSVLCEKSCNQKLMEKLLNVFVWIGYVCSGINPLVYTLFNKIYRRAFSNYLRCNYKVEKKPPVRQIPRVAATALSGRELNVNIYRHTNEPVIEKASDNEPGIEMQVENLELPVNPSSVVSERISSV
Outline: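 Receptor-bound radioligand counted after separation from unbound label once equilibrium is reached. Test compound added across a concentration range to tissue preparation plus radioligand; inhibition of binding reflects affinity and concentration.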

[3] = target: T3, NET (norepinephrine transporter) (Rattus norvegicus, UniProt Q63380); test: In vitro determination of NET reuptake inhibition ([3H]Nixosetine binding, rat brain cortex); conditions: rat brain cortex; for IC50: read-out: NET pIC50 (converted)
T3 construct: Cortex from rat brain was collected and homogenised; from tissue; host or cells: rat brain cortex
T3 sequence (Q63380 1-617): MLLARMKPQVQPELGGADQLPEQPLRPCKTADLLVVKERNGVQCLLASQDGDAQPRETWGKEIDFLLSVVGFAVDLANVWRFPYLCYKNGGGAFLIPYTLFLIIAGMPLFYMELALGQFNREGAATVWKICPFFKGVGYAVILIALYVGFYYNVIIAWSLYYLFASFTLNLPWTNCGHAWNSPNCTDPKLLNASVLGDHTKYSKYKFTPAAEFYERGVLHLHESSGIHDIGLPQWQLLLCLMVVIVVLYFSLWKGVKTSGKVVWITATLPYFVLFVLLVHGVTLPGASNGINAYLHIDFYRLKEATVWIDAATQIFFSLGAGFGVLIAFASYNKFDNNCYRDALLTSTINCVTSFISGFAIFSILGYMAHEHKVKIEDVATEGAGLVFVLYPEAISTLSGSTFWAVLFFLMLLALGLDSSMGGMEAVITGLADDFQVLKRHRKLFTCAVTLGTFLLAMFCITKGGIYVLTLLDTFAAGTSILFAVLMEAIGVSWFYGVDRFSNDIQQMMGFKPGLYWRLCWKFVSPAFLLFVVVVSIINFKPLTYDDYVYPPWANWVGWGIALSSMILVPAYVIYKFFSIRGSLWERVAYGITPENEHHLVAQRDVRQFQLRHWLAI
Outline: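 Competition curves and percentage specific binding came from scintillation counting of filter-trapped radioactivity. The membranes were rat cortical homogenate in pH 7.4 Tris buffer with 120 mM NaCl and 5 mM KCl. Test compounds competed with [3H]nisoxetine for binding.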

[4] = target: T4, human Dopamine D2L receptor (Homo sapiens, UniProt P14416); test: In vitro binding affinity for human D2L receptor ([3H]Spiperone binding); conditions: human D2L receptor-transfected CHO cell membranes; for IC50: read-out: D2L pIC50 (converted)
T4 construct: expressed in transfected cells; host or cells: CHO cells
T4 sequence (P14416 whole entry): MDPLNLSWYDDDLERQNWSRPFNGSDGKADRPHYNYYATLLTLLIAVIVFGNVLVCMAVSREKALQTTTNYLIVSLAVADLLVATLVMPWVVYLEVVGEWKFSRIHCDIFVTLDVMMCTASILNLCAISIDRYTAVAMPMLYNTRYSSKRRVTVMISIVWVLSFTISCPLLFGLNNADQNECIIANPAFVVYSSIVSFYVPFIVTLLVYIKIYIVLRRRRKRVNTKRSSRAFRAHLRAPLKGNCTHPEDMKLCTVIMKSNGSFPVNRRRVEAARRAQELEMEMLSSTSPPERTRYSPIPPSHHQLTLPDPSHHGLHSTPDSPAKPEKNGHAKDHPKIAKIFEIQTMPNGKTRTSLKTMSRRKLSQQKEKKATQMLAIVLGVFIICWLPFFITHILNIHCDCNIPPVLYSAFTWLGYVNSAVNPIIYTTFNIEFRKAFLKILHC
Outline: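 Competition curves were expressed as percent specific binding, measured by scintillation counting after filtration onto GF/B filters and ice-cold Tris washes. Test compounds competed with [3H]Spiperone, added from a 2 nmol/L dilution, for 30 min at 37° C on transfected CHO membranes in pH 7.7 Tris-HCl salt buffer. Butaclamol at 10^−6 mol/l final marked non-specific binding.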

Row | Structure (SMILES) | IC50 [1] | IC50 [2] | IC50 [3] | IC50 [4] | 5-HT2A pIC50 [1] | 5-HT2C pIC50 [2] | NET pIC50 [3] | D2L pIC50 [4]
1 | O=C(C1CCCC1)N1CCN(CC2CC3c4ccccc4Cc4ccc(F)cc4C3O2)CC1 (stereo not drawn) [Compound 79] | 4.79 nM | 51.3 nM | > 10000 nM | 44.7 nM |  |  |  | 
2 | CC(=Cc1ccccc1)CN1CCN(CC2CC3c4ccccc4Cc4ccc(F)cc4C3O2)CC1 (stereo not drawn) [Compound 49] | 33.9 nM | 120 nM | 2570 nM | 33.1 nM |  |  |  | 
3 | N#Cc1ccc2c(c1)[C@H]1C[C@@H](CN3CCC(O)C3)O[C@H]1c1cc(F)ccc1S2 (relative stereo) [Compound 260] | 2.24 nM | 3.09 nM | 912 nM | 24.5 nM |  |  |  | 
4 | O=C(C1CCCO1)N1CCN(CC2CC3c4ccccc4Cc4ccc(F)cc4C3O2)CC1 (mixture of isomers) [Compound 80] | 1.07 nM | 16.6 nM | 3720 nM | 44.7 nM |  |  |  | 
5 | O=C(O)CC1CN(C[C@H]2C[C@@H]3c4ccccc4Cc4ccc(F)cc4[C@@H]3O2)CCO1 (stereo partly drawn) [Compound 134] | < 10 nM | 1.38 nM | 42.7 nM | 41.7 nM |  |  |  | 
6 | C=CCOC(=O)N1CCN(CC2CC3c4ccccc4Cc4ccc(F)cc4C3O2)CC1 (stereo not drawn) [Compound 84] | 8.13 nM | 25.1 nM | > 10000 nM | 25.7 nM |  |  |  | 
7 | O=C(NCCCc1ccccc1)N1CCN(CC2CC3c4ccccc4Cc4ccc(F)cc4C3O2)CC1 (stereo not drawn) [Compound 93] | 2.57 nM | 5.01 nM | 4170 nM | 11.7 nM |  |  |  | 
8 | CC(C)NC(=O)N1CCN(CC2CC3c4ccccc4Cc4ccc(F)cc4C3O2)CC1 (stereo not drawn) [Compound 88] | 0.38 nM | 5.5 nM | 6460 nM | 22.9 nM |  |  |  | 
9 | O=C(Nc1cccc2cnccc12)C1CCN(CC2CC3c4ccccc4Cc4ccc(F)cc4C3O2)CC1 (stereo not drawn) [Compound 192] | < 10 nM | 3.8 nM | 7410 nM | 11.2 nM |  |  |  | 
10 | Fc1ccc2c(c1)C1OC(CN3CCN(Cc4cccc5ccccc45)CC3)CC1c1ccccc1C2 (stereo not drawn) [Compound 75] | 17.4 nM | 97.7 nM | 1620 nM | 63.1 nM |  |  |  | 
11 | O=C(O)C(=O)O.OCCN1CCCN(C[C@H]2C[C@@H]3c4ccccc4Cc4ccc(F)cc4[C@@H]3O2)CC1 [Compound 269] |  |  |  |  | 8.25 | 8.14 | 5.15 | 7.83
12 | N#Cc1cccc(CN2CCN(CC3CC4c5ccccc5Cc5ccc(F)cc5C4O3)CC2)c1 (stereo not drawn) [Compound 70] | 7.24 nM | 15.8 nM | 708 nM | 20.4 nM |  |  |  | 
13 | O=C(C1CCN(CC2CC3c4ccccc4Cc4ccc(F)cc4C3O2)CC1)N1CCC1 (stereo not drawn) [Compound 200] | < 10 nM | 8.13 nM | > 10000 nM | 15.5 nM |  |  |  | 
14 | CN1c2ccccc2C2CC(CN3CCC(O)C3)OC2c2ccccc21 (racemic) [Compound 263] | 251 nM | 13.2 nM | 2880 nM | 550 nM |  |  |  | 
15 | O=C(NCCCn1ccnc1)C1CCN(CC2CC3c4ccccc4Cc4ccc(F)cc4C3O2)CC1 (stereo not drawn) [Compound 180] | 2.45 nM | 3.89 nM | > 10000 nM | 37.2 nM |  |  |  | 
16 | COc1ccc(NC(=S)N2CCN(CC3CC4c5ccccc5Cc5ccc(F)cc5C4O3)CC2)cc1 (stereo not drawn) [Compound 112] | 3.31 nM | 21.9 nM | 933 nM | 20.4 nM |  |  |  | 
17 | Fc1ccc2c(c1)C1OC(CN3CCC(Oc4ccccc4F)C3)CC1c1ccccc1C2 (mixture of isomers) [Compound 34] | 7.24 nM | 0.427 nM | 6170 nM | 10 nM |  |  |  | 
18 | C=CS(=O)(=O)N1CCN(CC2CC3c4ccccc4Cc4ccc(F)cc4C3O2)CC1 (stereo not drawn) [Compound 104] | 8.32 nM | 28.2 nM | > 10000 nM | 30.9 nM |  |  |  | 
19 | O=S(=O)(c1ccccc1)n1cccc1CN1CCN(CC2CC3c4ccccc4Cc4ccc(F)cc4C3O2)CC1 (stereo not drawn) [Compound 68] | 67.6 nM | 117 nM | 2400 nM | 91.2 nM |  |  |  | 
20 | O=C(NCCCO)C1CCN(CC2CC3c4ccccc4Cc4ccc(F)cc4C3O2)CC1 (stereo not drawn) [Compound 175] | 0.759 nM | 1.74 nM | > 10000 nM | 18.2 nM |  |  |  | 
21 | COc1ccc2c(c1)C1OC(CN3CCC(O)CC3)CC1c1ccccc1O2.O=C(O)C(=O)O (racemic) [Compound 287] |  |  |  |  | 7.62 | 6.54 | <5 | 6.17
